Patent publication US20080057140A1, “Use of a Lignan for the Manufacture of a Composition for Preventing or Alleviating of Symptoms Relating to Estrogen Deficiency” (priority 2005, published 2008)

Columns and labels:
[1] = disclosed in WO 00/59946; cited from earlier work
[2] = plasma enterolactone after 7-hydroxymatairesinol capsules in human subjects; assay type: in vivo; settings: healthy male volunteers, capsules 315 mg/day (3 x 105 mg), 29 days, FIG. 2
Description: The data for experimental days 1 and 29 is shown. On the x-axis, the time (hrs) after the first 105 mg dose is shown. The arrows denote the administration of the three 105 mg HMRlignan™ (hydroxymatairesinol) doses during the test days 1 and 29. N=6.
In brief, healthy male volunteers ingested capsule preparation of 7-hydroxymatairesinol, at total daily dose of 315 mg, divided in three 105 mg portion for morning, afternoon and evening dose. The subjects ingested the product continuously for 29 days. […] The levels were measured with a high-performance liquid chromatography coupled with tandem mass spectrometer system (Applied Biosystems Inc.).

- circulating enterolactone concentration [2]: sustained increase
Compound: COc1cc(C[C@H]2C(=O)OC[C@@H]2[C@H](O)c2ccc(O)c(OC)c2)ccc1O [7-hydroxymatairesinol]
- conversion to enterolactone in vivo [1]: efficiently converted to enterolactone
